Values joined by “and” are separate entries in the source; they are usually repeats but may differ in a detail not shown here. Equal values may be shown once. Toxic doses and inconclusive results are not listed. Rule for the calls: active = survival T/C of 150% or more; inactive = T/C below 125% in these data.
System: P388 leukemia ip, CD2F1 mice, survival T/C
Assay: NCI In Vivo Anticancer Drug Screen. Data for tumor model P388 Leukemia (intraperitoneal) in CD2F1 (CDF1) mice
Conditions: endpoint: median survival time, higher = longer survival
Method in brief: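 Mice carrying the transplanted tumor received test compound or vehicle. Survival was recorded in each group, and the value is the treated-group measurement divided by that of the vehicle-treated control group.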

[1] = dose: 100.0 mg/kg/injection, schedule: Q01DX009 (ip), vehicle: saline with Tween-80
[2] = dose: 200.0 mg/kg/injection, schedule: Q01DX009 (ip), vehicle: saline with Tween-80
[3] = dose: 400.0 mg/kg/injection, schedule: Q01DX009 (ip), vehicle: saline with Tween-80
[4] = dose: 50.0 mg/kg/injection, schedule: Q01DX009 (ip), vehicle: saline with Tween-80
[5] = dose: 50.0 mg/kg/injection, schedule: Q04DX002 (ip), vehicle: saline with Tween-80
[6] = dose: 100.0 mg/kg/injection, schedule: Q04DX002 (ip), vehicle: saline with Tween-80
[7] = dose: 50.0 mg/kg/injection, schedule: Q01DX009 (ip), vehicle: Klucel (hydroxypropylcellulose) (HPC)
[8] = dose: 100.0 mg/kg/injection, schedule: Q01DX009 (ip), vehicle: Klucel (hydroxypropylcellulose) (HPC)
[9] = dose: 200.0 mg/kg/injection, schedule: Q01DX009 (ip), vehicle: Klucel (hydroxypropylcellulose) (HPC)
[10] = dose: 12.5 mg/kg/injection, schedule: Q04DX003 (ip), vehicle: saline with Tween-80
[11] = dose: 25.0 mg/kg/injection, schedule: Q04DX003 (ip), vehicle: saline with Tween-80
[12] = dose: 50.0 mg/kg/injection, schedule: Q04DX003 (ip), vehicle: saline with Tween-80
[13] = dose: 12.5 mg/kg/injection, schedule: Q01DX009 (ip), vehicle: saline with Tween-80
[14] = dose: 25.0 mg/kg/injection, schedule: Q01DX009 (ip), vehicle: saline with Tween-80

Measured: T/C

COC1/C=C\C=C(/C)C(=O)NC2=CC(=O)C(NCCCl)=C(CC(C)CC(OC)C(O)C(C)/C=C(/C)C1OC(N)=O)C2=O (stereo not given)
inactive: dose: 1.5 mg/kg/injection, schedule: Q01DX009 (ip), vehicle: DMSO 107 % of control | dose: 3.0 mg/kg/injection, schedule: Q01DX009 (ip), vehicle: DMSO 108 % of control | dose: 3.12 mg/kg/injection, schedule: Q04DX002 (ip), vehicle: saline with Tween-80 115 % of control | dose: 5.0 mg/kg/injection, schedule: Q04DX002 (ip), vehicle: saline with Tween-80 111 % of control | dose: 6.0 mg/kg/injection, schedule: Q01DX009 (ip), vehicle: DMSO 111 % of control | dose: 6.25 mg/kg/injection, schedule: Q04DX002 (ip), vehicle: saline with Tween-80 123 % of control | dose: 12.0 mg/kg/injection, schedule: Q01DX009 (ip), vehicle: DMSO 117 % of control | dose: 12.5 mg/kg/injection, schedule: Q04DX002 (ip), vehicle: saline with Tween-80 119 % of control | dose: 20.0 mg/kg/injection, schedule: Q04DX002 (ip), vehicle: saline with Tween-80 122 % of control

C=CCNC(=S)NCC
inactive: [1] 100 % of control | [2] 104 % of control | [3] 109 % of control

C/C=C(\C)C(=O)N/N=C\c1ccc(O)cc1O
inactive: [4] 104 % of control | [1] 96 % of control | [2] 91 % of control

SC(Cc1nc2ccccc2[nH]1)c1nc2ccccc2[nH]1 (stereo not given)
inactive: dose: 100.0 mg/kg/injection, schedule: Q01DX001 (ip), vehicle: Klucel + Tween-80 93 % of control | dose: 200.0 mg/kg/injection, schedule: Q01DX001 (ip), vehicle: Klucel + Tween-80 93 % of control | dose: 400.0 mg/kg/injection, schedule: Q01DX001 (ip), vehicle: Klucel + Tween-80 100 % of control

CC1=C/C(=N/OS(=O)(=O)c2ccc(C)cc2)CC(C)(C)C1
inactive: dose: 50.0 mg/kg/injection, schedule: Q01DX005 (ip), vehicle: saline with Tween-80 101 % of control | dose: 100.0 mg/kg/injection, schedule: Q01DX005 (ip), vehicle: saline with Tween-80 92 % of control | dose: 200.0 mg/kg/injection, schedule: Q01DX005 (ip), vehicle: saline with Tween-80 117 % of control

Clc1ccc2sc(-c3ccccc3)nc2c1
inactive: [4] 106 % of control | [1] 103 % of control | [2] 100 % of control | [3] 100 % of control

FC(F)(F)c1ccc2c(c1)N(CCCCl)c1ccccc1S2
inactive: dose: 50.0 mg/kg/injection, schedule: Q04DX003 (ip), vehicle: saline 94 % of control | dose: 100.0 mg/kg/injection, schedule: Q04DX003 (ip), vehicle: saline 99 % of control | dose: 200.0 mg/kg/injection, schedule: Q04DX003 (ip), vehicle: saline 104 % of control | dose: 400.0 mg/kg/injection, schedule: Q04DX003 (ip), vehicle: saline 98 % of control

CC(=O)Oc1cc(C)cc2c1[C@@]1(C)CC[C@H]3[C@@H](CC[C@H]4C[C@@H](OC(C)=O)CC[C@@]43C)[C@@H]1C2
inactive: dose: 50.0 mg/kg/injection, schedule: Q01DX005 (ip), vehicle: Klucel (hydroxypropylcellulose) (HPC) 96 % of control | dose: 100.0 mg/kg/injection, schedule: Q01DX005 (ip), vehicle: Klucel (hydroxypropylcellulose) (HPC) 96 % of control | dose: 200.0 mg/kg/injection, schedule: Q01DX005 (ip), vehicle: Klucel (hydroxypropylcellulose) (HPC) 107 % of control

Fc1ccc(NP(=S)(Nc2ccc(F)cc2F)Nc2ccc(F)cc2F)c(F)c1
inactive: dose: 25.0 mg/kg/injection, schedule: Q04DX002 (ip), vehicle: saline with Tween-80 101 % of control | [5] 104 % of control | [6] 102 % of control and 105 % of control

CC(=O)/C=C/c1ccc([N+](=O)[O-])cc1
inactive: [7] 100 % of control | [8] 90 % of control | dose: 100.0 mg/kg/injection, schedule: Q04DX003 (ip), vehicle: Klucel (hydroxypropylcellulose) (HPC) 91 % of control | [9] 98 % of control | dose: 200.0 mg/kg/injection, schedule: Q04DX003 (ip), vehicle: Klucel (hydroxypropylcellulose) (HPC) 89 % of control | dose: 400.0 mg/kg/injection, schedule: Q04DX003 (ip), vehicle: Klucel (hydroxypropylcellulose) (HPC) 97 % of control

O=C1/C(=N/O)Cc2ccccc21
inactive: [10] 100 % of control | [11] 100 % of control | [12] 100 % of control

ClC1=CN(C2=NCCC2)CC1
inactive: dose: 6.25 mg/kg/injection, schedule: Q01DX009 (ip), vehicle: saline with Tween-80 101 % of control | [13] 103 % of control | [14] 97 % of control

O=C(c1ccccc1)N(C(=O)c1ccccc1)c1ccccn1
inactive: [13] 103 % of control | [14] 106 % of control | [4] 112 % of control | [1] 87 % of control | [2] 86 % of control | [3] 93 % of control

CCCCCCCCC(=O)c1c(OC)oc(/C=N/NC(N)=S)cc1=O
inactive: [8] 86 % of control | [9] 91 % of control | dose: 400.0 mg/kg/injection, schedule: Q01DX009 (ip), vehicle: Klucel (hydroxypropylcellulose) (HPC) 98 % of control

Cc1ccc(S(=O)(=O)N/N=C/c2c(Cl)n(C(=O)c3ccccc3F)c3ccccc23)cc1
inactive: dose: 50.0 mg/kg/injection, schedule: Q01DX001 (ip), vehicle: Klucel (hydroxypropylcellulose) (HPC) 93 % of control | dose: 100.0 mg/kg/injection, schedule: Q01DX001 (ip), vehicle: Klucel (hydroxypropylcellulose) (HPC) 95 % of control | dose: 200.0 mg/kg/injection, schedule: Q01DX001 (ip), vehicle: Klucel (hydroxypropylcellulose) (HPC) 90 % of control | dose: 400.0 mg/kg/injection, schedule: Q01DX001 (ip), vehicle: Klucel (hydroxypropylcellulose) (HPC) 86 % of control

CC(=O)O[C@H]1[C@H]2O[C@]23[C@@H]2CC[C@]4(O)C[C@@H](O)CC[C@]4(C)[C@H]2CC[C@]3(C)[C@H]1c1ccc(=O)oc1
inactive: dose: 12.5 mg/kg/injection, schedule: Q01DX009 (ip), vehicle: Klucel (hydroxypropylcellulose) (HPC) 114 % of control | dose: 25.0 mg/kg/injection, schedule: Q01DX009 (ip), vehicle: Klucel (hydroxypropylcellulose) (HPC) 105 % of control | [7] 105 % of control | [8] 120 % of control

O=C(CCCC(=O)Nc1ccc2[nH]c3ccccc3c(=O)c2c1)Nc1ccc2[nH]c3ccccc3c(=O)c2c1
inactive: dose: 60.0 mg/kg/injection, schedule: Q01DX005 (ip), vehicle: Klucel (hydroxypropylcellulose) (HPC) 92 % of control | dose: 120.0 mg/kg/injection, schedule: Q01DX005 (ip), vehicle: Klucel (hydroxypropylcellulose) (HPC) 94 % of control

Cc1cc(C)c(C#N)c(=O)[nH]1
inactive: [10] 97 % of control | [11] 103 % of control | [12] 105 % of control | dose: 100.0 mg/kg/injection, schedule: Q04DX003 (ip), vehicle: saline with Tween-80 103 % of control

COc1ccc(/C=N\N=C(/[O-])c2ccccc2O)cc1.COc1ccc(/C=N\N=C(/[O-])c2ccccc2O)cc1.[Co+2]
inactive: [5] 93 % of control | [6] 98 % of control | dose: 200.0 mg/kg/injection, schedule: Q04DX002 (ip), vehicle: saline with Tween-80 96 % of control

CCOC(=O)c1c(-c2ccc3c(c2)OCO3)[nH][nH]c1=O
inactive: dose: 100.0 mg/kg/injection, schedule: Q04DX002 (ip), vehicle: saline 101 % of control | dose: 200.0 mg/kg/injection, schedule: Q04DX002 (ip), vehicle: saline 99 % of control
